Assay results reported in patent publication US20260144798A1, “Disruption of Vascular Smooth Muscle Relaxation by Carfilzomib May be the Primary Reason for CFZ-Induced Vascular Dysfunction” (AMGEN INC., priority 2019, published 2026).

Legend:
[1] = system: sGC-β; assay: Western blot of sGC-β in rat aortic smooth muscle cells; type: cell-based; conditions: CFZ for more than 12 hours (FIG. 4A)
Method: (§1) Each cell pellet was lysed in 50 to 70 μL RIPA buffer (Cell Signaling Technology, Danvers, MA) with the Halt™ protease and phosphatase inhibitor cocktail (Thermo Fisher Scientific). Lysates were quantitated and loaded onto the Li-COR Western blot system. Antibodies specific to phosphorylated eNOS and eNOS from Thermo Fisher Scientific, anti-Guanylyl Cyclase β1 (ER-19) (Sigma-Aldrich), and β-Actin (Sigma-Aldrich) were diluted 1:1000 for Western blot. Antibodies specific to p-VASP, VASP, and GADPH-HRP were purchased from Cell Signaling Technology.

[2] = system: rat aortic rings; assay: Sodium nitroprusside-induced relaxation of phenylephrine-precontracted rat aortic rings
Method: An isometric myograph (DMT 620M) was used for ex vivo measurement of vascular function. Eight-to 10-week old Sprague Dawley rats (purchased from Charles River Laboratories, Wilmington, MA) were first anesthetized with 3% isoflurane and then euthanized using inhaled desflurane. The aortas were isolated in an ice-cold, oxygenated (95% O2, 5% CO2) Krebs-Henseleit buffer (118.3 mM NaCl, 4.7 mM KCl, 1.2 mM MgSO4, 1.2 mM KH2PO4, 2.5 mM CaCl2, 25 mM NaHCO3, and 11.0 mM glucose; purchased from Sigma-Aldrich, St. Louis, MO). The thoracic aorta was carefully cleaned to remove perivascular fat and cut into 2-mm rings that were mounted between two stainless steel wires in the myograph chamber containing 8 mL of Krebs-Henseleit buffer in 95% O2 and 5% CO2 at 37° C. First, the rings were equilibrated in the chamber for 20 minutes, followed by a gradual increase of mechanical stretch until a final stretch of 10 mN (Newton) was reached. After an additional incubation with fresh buffer for 30 minutes, the rings were constricted with 8 mL of 80 mM KPSS (43 mM NaCl, 80 mM KCl, 2.5 mM CaCl2, 1.2 mM MgSO4, 1.2 mM KH2PO4, 25.0 mM NaHCO3, and 11.0 mM glucose) for 15 to 20 minutes, followed by 3 washes with the Krebs-Henseleit buffer until the force returned to the baseline stretch. The tension of the aortic rings was continuously measured with the Lab Chart 7 data acquisition system (ADInstruments, Colorado Springs, CO). In Some of the experiments the aortic rings were pre-treated with 100 μM N(gamma)-nitro-L-arginine methyl ester (L-NAME; Sigma-Aldrich) and 10 μM indomethacin for 10 minutes prior to the pre-incubation with CFZ (Amgen Inc.) for 2 hours. After an additional incubation with fresh buffer for 30 minutes, the rings were constricted with 8 mL of 80 mM KPSS (43 mM NaCl, 80 mM KCl, 2.5 mM CaCl2, 1.2 mM MgSO4, 1.2 mM KH2PO4, 25.0 mM NaHCO3, and 11.0 mM glucose) for 15 to 20 minutes, followed by 3 washes with the Krebs-Henseleit buffer until the force returned to the baseline stretch. The tension of the aortic rings was continuously measured with the Lab Chart 7 data acquisition system (ADInstruments, Colorado Springs, CO).
For assessment of the effect of CFZ on vascular relaxation, the pre-treated aortic rings were incubated with 1 μM PE for 20 minutes to induce contraction. For experiments involving sildenafil and tadalafil, a 10-minute pre-treatment with 30 nM of these smooth muscle relaxants was done prior to the incubation with CFZ. After reaching a stable contraction, ACh, sodium nitroprusside (SNP), nifedipine, riociguat, or cinaciguat was added to the chamber at an increasing concentration from 100 pM to 10 μM; each stepwise concentration increase was added after the response to the current concentration reached a plateau. The relaxation was continuously measured and plotted as percent relaxation normalized to the response with 1 μM PE.
Aortas were isolated from 8-10 week old CD® (Sprague Dawley) rats (from Charles River Laboratories) in an ice-cold, oxygenated (95% O2, 5% CO2) Krebs-Henseleit buffer. The aortas were then carefully cleaned to remove perivascular fat and cut into 2-mm rings that were mounted between two stainless steel wires in the myograph chamber containing 8 mL of Krebs-Henseleit buffer in 95% O2 and 5% CO2 at 37° C. Rings were stretch until a final stretch of 10 mN (Newton) was reached and incubated for 30 mins for equilibration.

[3] = system: rat aortic rings; assay: Vasopressor-induced contraction of rat aortic rings, myograph
Method: An isometric myograph (DMT 620M) was used for ex vivo measurement of vascular function. Eight-to 10-week old Sprague Dawley rats (purchased from Charles River Laboratories, Wilmington, MA) were first anesthetized with 3% isoflurane and then euthanized using inhaled desflurane. The aortas were isolated in an ice-cold, oxygenated (95% O2, 5% CO2) Krebs-Henseleit buffer (118.3 mM NaCl, 4.7 mM KCl, 1.2 mM MgSO4, 1.2 mM KH2PO4, 2.5 mM CaCl2, 25 mM NaHCO3, and 11.0 mM glucose; purchased from Sigma-Aldrich, St. Louis, MO). […] The tension of the aortic rings was continuously measured with the Lab Chart 7 data acquisition system (ADInstruments, Colorado Springs, CO). […]
To assess the effect of CFZ on vascular contraction, the aortic rings were pre-treated with or without CFZ for 2 hours, followed by treatment with an increasing concentration of phenylephrine (PE) from 10 nM to 1 μM. […] The contraction was continuously measured and plotted as percent contraction normalized to the response of KPSS. […] The relaxation was continuously measured and plotted as percent relaxation normalized to the response with 1 μM PE.

[4] = system: rat aortic rings; assay: Angiotensin induced contraction (AUC) of rat aortic rings; conditions: LNAME+indomethacin, 2.7 μM CFZ 1.5 hour, 30 nM Angiotensin 30 min (FIG. 11)
Method: Aortas were isolated from 8-10 week old CD® (Sprague Dawley) rats (from Charles River Laboratories) in an ice-cold, oxygenated (95% O2, 5% CO2) Krebs-Henseleit buffer. The aortas were then carefully cleaned to remove perivascular fat and cut into 2-mm rings that were mounted between two stainless steel wires in the myograph chamber containing 8 mL of Krebs-Henseleit buffer in 95% O2 and 5% CO2 at 37° C. Rings were stretch until a final stretch of 10 mN (Newton) was reached and incubated for 30 mins for equilibration. The rings were constricted with 8 mL of 80 mM KPSS for 15 minutes, followed by 3 washes with the Krebs-Henseleit buffer until the force returned to the baseline stretch. The aorta were then treated for one of the following experiments: • For protein expression studies the aortic rings were pre-treated with 100 μM N(gamma)-nitro-L-arginine methyl ester (L-NAME; Sigma-Aldrich) and 10 μM indomethacin for 10 minutes prior to the pre-incubation with CFZ (Amgen Inc.) for 1.5 hours.
Following the two incubation the rings were treated with either vehicle or 2.7 μM CFZ for further 1.5 hours before addition of 30 nM Angiotensin for 30 min. Angiotensin induced transient contraction which returned to the baseline in 30 mins. Area Under the Curve (AUC) of angiotensin induced contraction was measured.
Aortic rings were incubated for 10 min with 100 μM LNAME+10 μM indomethacin (endothelium derived relaxing agents blockers) for 10 mins followed by addition of 10 μM SB 203580 (p38 inhibitor) or PF3644022 (MAPKAPK-2 inhibitor) in some rings for 10 more mins as indicated. This was followed by addition of 2.7 μM CFZ in some rings as indicated for 1.5 hour. 30 nM Angiotensin was added for 30 min. Angiotensin induced transient contraction which returned to the baseline in 30 mins.

[5] = system: GUCY1A3; assay: GUCY1A3 gene expression by RT-PCR in human aortic smooth muscle cells; type: cell-based; conditions: 24-hour treatment, 2.7 μM CFZ, SMCs (FIG. 4B)
Method: To confirm whether results could be replicated in human tissue, human aortic smooth muscle cells (Lonza, Walkersville, MD) were cultured in SmGM-2™ Smooth Muscle Cell Growth Medium-2 BulletKit™ (Lonza). The cells were maintained at 37° C. in a humidified incubator with 5% CO2. Cells were seeded at a concentration of 2.5×10^5 cells/mL of medium. After 1 day of culture, fresh medium with or without 2.7 μM CFZ was added and incubated for 6 or 24 hours.
Cell pellets were lysed in Buffer RLT (Qiagen, Germantown, MD) supplemented with β-mercaptoethanol (Bio-Rad, Hercules, CA). RNA was isolated and purified using QIAcube (Qiagen). The RNA concentration and quality were determined by NanoDrop 8000 spectrophotometer (Thermo Fisher Scientific, Wilmington, DE). DNA contaminant was removed through DNase I (Promega, Madison, WI) digestion prior to quantitative RT-PCR. Quantitative RT-PCR was performed in the QuantStudio 7 Flex RT-PCR system (Thermo Fisher Scientific) with RNA-to-CT 1-Step Kit (Thermo Fisher Scientific) and TaqMan assays (Applied Biosystems, Foster City, CA). The TaqMan assays were GUCY1A3(Hs01015574_m1) and 18S rRNA. Multiplex reactions were run in triplicates with the genes of interest and 18S rRNA normalization control. The average relative quantities were calculated from three separate experiments.

[6] = system: eNOS; assay: Western blot of phosphorylated eNOS and eNOS in mouse endothelial cells; type: cell-based; conditions: different concentrations of CFZ (FIG. 3A)
Method: Protein levels of eNOS were unable to be assessed in rat endothelial cells; therefore, endothelial cells from mice were used. Mouse coronary endothelial cells (Cell Biologics) at passage 7 were seeded at 50,000 cells per well with 200 μL of endothelial cell media (Cell Biologics) in 96-well plates for 24 hours at 37° C. in 5% CO2. Some cells were pretreated with 100 μM L-NAME for 1 hour before adding 10 μM ACh. Cells were further treated with 0.3, 0.9, or 2.7 μM of CFZ or its vehicle for an additional 48 hours. The supernatant was collected and the amount of NO was assessed following the manufacturer's protocol for the colorimetric Nitric Oxide Assay Kit (Abcam, Cambridge, MA).
as §1

## CC(C)C[C@H](NC(=O)[C@H](CCc1ccccc1)NC(=O)CN1CCOCC1)C(=O)N[C@@H](Cc1ccccc1)C(=O)N[C@@H](CC(C)C)C(=O)[C@@]1(C)CO1 [CFZ, carfilzomib]
[1]
  sGC-β protein level: increased with increasing exposure to CFZ
[2]; FIG. 5A experiment, vehicle alone 7.2×10^−9
  EC50 for SNP-induced relaxation, CFZ alone: 1.7×10^−8
[2]; in the presence of CFZ 2.7 μM, vehicle alone 1.8×10^−8
  EC50 for SNP-induced relaxation in the presence of L-NAME and indomethacin: 4.3×10^−8
[2]; rings pretreated with CFZ, increasing SNP (FIG. 2B)
  effect on SNP-induced relaxation: appeared to interfere with SNP-induced relaxation
[3]; CFZ 0.3, 0.9 or 2.7 μM, increasing phenylephrine (FIG. 1C)
  effect on phenylephrine-induced vascular contraction: No significant CFZ effect on vascular contraction
[3]; CFZ vs vehicle, increasing potassium chloride (FIG. 1D)
  effect on potassium chloride-induced vascular contraction: No significant CFZ effect on vascular contraction
[4]
  angiotensin induced contraction, area under the curve: increased angiotensin induced contraction
[5]
  upregulation of GUCY1A3 gene expression: more than 25 fold
[6]
  level of phosphorylated eNOS: increasing level of phosphorylated eNOS corresponded to the increasing CFZ concentration
  protein expression level of total eNOS: remained the same
